Experimental data: ChEMBL document CHEMBL1127904, “D-amino acids as novel P2/P3 ligands for inhibitors of HIV-1 protease” (Bioorg Med Chem Lett, 1994)

Key:
[1] = molecular target: Human immunodeficiency virus type 1 protease (Human immunodeficiency virus 1, UniProt Q72874); experiment: Concentration required for in vitro inhibitory activity against HIV-1 protease
CCRF-CEM = experiment: Concentration required for in vitro antiviral activity against HIV-1 virus infected CEM cells; assay type: functional, cell-based; conditions: Homo sapiens
MT2 = experiment: Concentration required for in vitro antiviral activity against HIV-1 virus infected MT2 cells; assay type: functional, cell-based; conditions: Homo sapiens

SMILES | IC50 [1] | IC50 (CCRF-CEM) | IC50 (MT2)
CC(C)(C)NC(=O)c1ccccc1C[C@@H](O)[C@H](Cc1ccccc1)NC(=O)[C@@H](CC(=O)OCc1ccccc1)NS(C)(=O)=O | > 1000 nM | – | –
CC(=O)N[C@@H](CSCc1ccccc1)C(=O)N[C@@H](Cc1ccccc1)[C@H](O)Cc1ccccc1C(=O)NC(C)(C)C | 45 nM | 2910 nM | 3120 nM
CC(=O)N[C@@H](CSc1ccc2ccccc2c1)C(=O)N[C@@H](Cc1ccccc1)[C@H](O)Cc1ccccc1C(=O)NC(C)(C)C | 42 nM | 1130 nM | 1000 nM
CC(=O)N[C@H](CSCc1ccccc1)C(=O)N[C@@H](Cc1ccccc1)[C@H](O)Cc1ccccc1C(=O)NC(C)(C)C | > 1000 nM | – | –
CC(=O)N[C@H](CC(=O)OCc1ccccc1)C(=O)N[C@@H](Cc1ccccc1)[C@H](O)Cc1ccccc1C(=O)NC(C)(C)C | > 1000 nM | – | –
CC(C)(C)NC(=O)c1ccccc1C[C@@H](O)[C@H](Cc1ccccc1)NC(=O)[C@H](CC(=O)OCc1ccccc1)NC(N)=O | 51 nM | 22400 nM | 11900 nM
CC(C)(C)NC(=O)c1ccccc1C[C@@H](O)[C@H](Cc1ccccc1)NC(=O)C(CC(N)=O)NC(=O)c1ccc2ccccc2n1 (single isomer, unassigned) | – | 23 nM | –
CC(C)(C)NC(=O)c1ccccc1C[C@@H](O)[C@H](Cc1ccccc1)NC(=O)[C@H](CC(=O)NCc1ccc2ccccc2n1)NS(C)(=O)=O | 8 nM | 580 nM | 1440 nM
CC(=O)N[C@@H](CC(=O)OCc1ccccc1)C(=O)N[C@@H](Cc1ccccc1)[C@H](O)Cc1ccccc1C(=O)NC(C)(C)C | 85 nM | – | –
CC(C)(C)NC(=O)c1ccccc1C[C@@H](O)[C@H](Cc1ccccc1)NC(=O)[C@H](CC(=O)OCc1ccccc1)NS(C)(=O)=O | 5.4 nM | 1090 nM | 1270 nM
CC(=O)N[C@H](CS(=O)(=O)c1ccc2ccccc2c1)C(=O)N[C@@H](Cc1ccccc1)[C@H](O)Cc1ccccc1C(=O)NC(C)(C)C | 0.3 nM | 11 nM | 31 nM
CC(=O)N[C@@H](CS(=O)(=O)c1ccc2ccccc2n1)C(=O)N[C@@H](Cc1ccccc1)[C@H](O)Cc1ccccc1C(=O)NC(C)(C)C | 0.3 nM | 53 nM | 180 nM
